Reference: patent publication US9115143B2, “Substituted indole derivatives as gamma secretase modulators” (Janssen Pharmaceuticals, Inc., priority 2011, dated 2015)

Legend:
[1] = system: Aβ42; assay: Screening for γ-secretase-modulating activity: Aβ42 in supernatant of SKNBE2 cells carrying hAPP 695 wild type (Alphalisa); format: cell-based, human; settings: overnight incubation, Alphalisa on supernatant
Procedure, shortened: (§1)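 SKNBE2 human neuroblastoma cells expressing wild-type hAPP 695 (10^4/well) were incubated overnight at 37 °C, 5% CO2 with compound at several concentrations. Supernatant Aβ42 and Aβtotal measured by AlphaLISA sandwich immunoassays; IC50 from 4-parameter fit of percent of untreated control versus log concentration.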

[2] = system: Aβtotal; assay: Screening for γ-secretase-modulating activity: Aβtotal in supernatant of SKNBE2 cells carrying hAPP 695 wild type (Alphalisa); format: cell-based, human; settings: overnight incubation, Alphalisa on supernatant
Procedure, shortened: as §1

[3] = system: Aβ38; assay: In vivo efficacy B-2a: brain soluble Aβ38 in non-transgenic rodents, ELISA; parameters: species or system mouse; settings: dose 30 mg/kg oral dosing, brain soluble fraction, untreated animals (Ctrl) set at 100; for response vs control in vivo at 30 mg/kg: Mus musculus, po, read-out: Aβ38 (% vs Ctrl)_Mean; for Aβ38 (% vs Ctrl)_Mean: 30 mg/kg
Text: Aβ38 increasing agents can be administered in any standard form using any standard method. For example, but not limited to, Aβ38 increasing agents can be in the form of liquid, tablets or capsules that are taken orally or by injection.
To determine whether acute administration of an Aβ38 increasing agents would increase Aβ38 levels in vivo, non-transgenic rodents, e.g. mice or rats were used. Animals treated with the Aβ38 increasing agents were examined and compared to those untreated or treated with vehicle and brain levels of soluble Aβ38 and total Aβ were quantitated by standard techniques, for example, using ELISA. Treatment periods varied from hours (h) to days and were adjusted based on the results of the Aβ38 increase once a time course of onset of effect could be established.
A typical protocol for measuring Aβ38 increase in vivo is shown but it is only one of many variations that could be used to optimize the levels of detectable Aβ. For example, Aβ38 increasing agents were formulated in 20% of Captisol® (a sulfobutyl ether of β-cyclodextrin) in water or 20% hydroxypropyl β cyclodextrin. The Aβ38 increasing agents were administered as a single oral dose or by any acceptable route of administration to overnight fasted animals. After 4 h, the animals were sacrificed and Aβ38 levels were analysed.
Blood was collected by decapitation and exsanguinations in EDTA-treated collection tubes. Blood was centrifuged at 1900 g for 10 minutes (min) at 4° C. and the plasma recovered and flash frozen for later analysis. The brain was removed from the cranium and hindbrain. The cerebellum was removed and the left and right hemisphere were separated. The left hemisphere was stored at −18° C. for quantitative analysis of test compound levels. The right hemisphere was rinsed with phosphate-buffered saline (PBS) buffer and immediately frozen on dry ice and stored at −80° C. until homogenization for biochemical assays.
Mouse brains from non-transgenic animals were resuspended in 8 volumes of 0.4% DEA (diethylamine)/50 mM NaCl containing protease inhibitors (Roche-11873580001 or 04693159001) per gram of tissue, e.g. for 0.158 g brain, add 1.264 mL of 0.4% DEA. All samples were homogenized in the FastPrep-24 system (MP Biomedicals) using lysing matrix D (MPBio #6913-100) at 6 m/s for 20 seconds. Homogenates were centrifuged at 20800×g for 5 min and supernatants collected. Supernatants were centrifuged at 221.300×g for 50 min. The resulting high speed supernatants were then transferred to fresh eppendorf tubes. Nine parts of supernatant were neutralized with 1 part 0.5 M Tris-HCl pH 6.8 and used to quantify Aβtotal and Aβ38.
To quantify the amount of Aβtotal and Aβ38 in the soluble fraction of the brain homogenates, Enzyme-Linked-Immunosorbent-Assays were used. Briefly, the standards (a dilution of synthetic Aβ1-40 and Aβ1-38, ANASPEC) were prepared in 1.5 mL Eppendorf tube in Ultraculture, with final concentrations ranging from 10000 to 0.3 pg/mL. The samples and standards were co-incubated with HRPO-labelled N-terminal antibody for Aβ38 detection and with the biotinylated mid-domain antibody 4G8 for Aβtotal detection. 50 μl of conjugate/sample or conjugate/standards mixtures were then added to the antibody-coated plate (the capture antibodies selectively recognize the C-terminal end of Aβ38, antibody J&JPRD/Aβ38/5, for Aβ38 detection and the N-terminus of Aβ, antibody JRF/rAβ/2, for Aβtotal detection). The plate was allowed to incubate overnight at 4° C. in order to allow formation of the antibody-amyloid complex. Following this incubation and subsequent wash steps the ELISA for Aβ38 quantification was finished by addition of Quanta Blu fluorogenic peroxidase substrate according to the manufacturer's instructions (Pierce Corp., Rockford, Ill.). A reading was performed after 10 to 15 min (excitation 320 nm/emission 420 nm). […]

[4] = Homo sapiens, SKNBE2, SKNBE2 human neuroblastoma cells carrying hAPP 695 wild type
[5] = SKNBE2 human neuroblastoma cells carrying hAPP 695 wild type

Row | Structure (SMILES) | IC50 [1, 4] | IC50 [2, 4] | melting point | IC50 [1, 5] | IC50 [2, 5] | response vs control in vivo at 30 mg/kg [3] | Aβ38 (% vs Ctrl)_Mean [3]
1 | Cc1cc(F)ccc1C1CCCn2nc(-c3cc4cc(C#N)ccc4[nH]3)nc21 (stereo not drawn) [Compound 9, 2-[8-(4-fluoro-2-methylphenyl)-5,6,7,8-tetrahydro[1,2,4]triazolo[1,5-a]pyridin-2-yl]-1H-indole-5-carbonitrile] |  | > 10 µM | 244.9 °C | 138 nM |  |  | 87 % vs Ctrl
2 | Cc1ccccc1C1CCCn2nc(-c3cc4cc(C#N)ccc4[nH]3)nc21 (stereo not drawn) [Compound 12, 2-[5,6,7,8-tetrahydro-8-(2-methylphenyl)[1,2,4]triazolo[1,5-a]pyridin-2-yl]-1H-indole-5-carbonitrile] |  | > 10 µM | 142.1 °C | 126 nM |  |  | 96 % vs Ctrl
3 | Cc1cc(-c2ccc3[nH]c(-c4nc5n(n4)CCCC5c4ccccc4C)cc3n2)ccn1 (stereo not drawn) [Compound 6, 5,6,7,8-tetrahydro-8-(2-methylphenyl)-2-[5-(2-methyl-4-pyridinyl)-1H-pyrrolo[3,2-b]pyridin-2-yl]-[1,2,4]triazolo[1,5-a]pyridine] | 47 nM | > 10 µM | 266.5 °C |  |  | 78% | 
4 | Cc1cc(F)ccc1C1CCCn2nc(-c3cc4cc(C#N)ccc4[nH]3)nc21 (stereo not drawn) [Compound 10, 2-[8-(4-fluoro-2-methylphenyl)-5,6,7,8-tetrahydro[1,2,4]triazolo[1,5-a]pyridin-2-yl]-1H-indole-5-carbonitrile] |  |  |  | 102 nM | > 10 µM |  | 115 % vs Ctrl
5 | Cc1cn(-c2ccc3[nH]c(-c4nc5n(n4)CCCC5c4ccccc4C(F)(F)F)cc3c2)cn1 (stereo not drawn) [Compound 8, 5,6,7,8-tetrahydro-2-[5-(4-methyl-1H-imidazol-1-yl)-1H-indol-2-yl]-8-[2-(trifluoromethyl)phenyl]-[1,2,4]triazolo[1,5-a]pyridine] | 46 nM | > 10 µM |  |  |  | 181% | 
6 | Cc1cc(F)ccc1C1CCCn2cc(-c3cc4cc(C#N)ccc4[nH]3)nc21 (stereo not drawn) [Compound 4, 2-[8-(4-fluoro-2-methylphenyl)-5,6,7,8-tetrahydroimidazo[1,2-a]pyridin-2-yl]-1H-indole-5-carbonitrile] |  | > 10 µM |  | 87 nM |  |  | 141 % vs Ctrl
7 | Cc1cn(-c2ccc3[nH]c(-c4nc5n(n4)CCCC5c4ccccc4C)cc3n2)cn1.Cl (stereo not drawn) [Compound 5, 5,6,7,8-tetrahydro-2-[5-(4-methyl-1H-imidazol-1-yl)-1H-pyrrolo[3,2-b]pyridin-2-yl]-8-(2-methylphenyl)-[1,2,4]triazolo[1,5-a]pyridine] | 105 nM | > 10 µM | 189.4 °C |  |  | 123% | 

The next lines start with results.

Row | IC50 [1, 4] | IC50 [2, 4] | melting point | IC50 [1, 5] | IC50 [2, 5] | Structure (SMILES) | response vs control in vivo at 30 mg/kg [3] | Aβ38 (% vs Ctrl)_Mean [3]
8 | 275 nM | > 10 µM | 225.1 °C |  |  | N#Cc1ccc2[nH]c(-c3nc4n(n3)CCCC4c3cccc(OC(F)(F)F)c3)cc2c1 (stereo not drawn) [Compound 20, 2-[5,6,7,8-tetrahydro-8-[3-(trifluoromethoxy)phenyl][1,2,4]triazolo[1,5-a]pyridin-2-yl]-1H-indole-5-carbonitrile] | 122% | 
9 |  |  | 242.6 °C | 23 nM | > 10 µM | COc1c(C#N)ccc2[nH]c(-c3cn4c(n3)C(c3ccc(F)cc3C)OCC4)cc12 (stereo not drawn) [Compound 47, 2-[8-(4-fluoro-2-methylphenyl)-5,6-dihydro-8H-imidazo[2,1-c][1,4]oxazin-2-yl]-4-methoxy-1H-indole-5-carbonitrile] |  | 87 % vs Ctrl
10 | 117 nM | > 10 µM | 229 °C |  |  | N#Cc1ccc2[nH]c(-c3nc4n(n3)CCCC4c3ccccc3C(F)(F)F)cc2c1 (stereo not drawn) [Compound 18, 2-[5,6,7,8-tetrahydro-8-[2-(trifluoromethyl)phenyl][1,2,4]triazolo[1,5-a]pyridin-2-yl]-1H-indole-5-carbonitrile] | 87% | 
11 |  |  | 257.5 °C | 32 nM | > 10 µM | COc1c(C#N)ccc2[nH]c(-c3nc4n(n3)CCOC4c3ccc(F)cc3C)cc12 (stereo not drawn) [Compound 114, 2-[8-(4-fluoro-2-methylphenyl)-5,6-dihydro-8H-[1,2,4]triazolo[5,1-c][1,4]oxazin-2-yl]-4-methoxy-1H-indole-5-carbonitrile] |  | 88 % vs Ctrl
12 |  | 7.24 µM |  | 46 nM |  | Cc1cn(-c2ccc3[nH]c(-c4nc5n(n4)CCCC5c4ccc(F)cc4C)cc3n2)cn1 (stereo not drawn) [Compound 65, 8-(4-fluoro-2-methylphenyl)-5,6,7,8-tetrahydro-2-[5-(4-methyl-1H-imidazol-1-yl)-1H-pyrrolo[3,2-b]pyridin-2-yl]-[1,2,4]triazolo[1,5-a]pyridine] | 101% | 
13 |  |  |  | 117 nM | > 10 µM | Cc1cc(F)ccc1C1CCCn2nc(-c3[nH]c4ccc(C#N)cc4c3F)nc21 (single isomer, unassigned) [Compound 182, 3-fluoro-2-[8-(4-fluoro-2-methylphenyl)-5,6,7,8-tetrahydro[1,2,4]triazolo[1,5-a]pyridin-2-yl]-1H-indole-5-carbonitrile] | 132% | 
14 |  |  |  | 68 nM | > 10 µM | Cc1cc(F)ccc1C1CCCn2cc(-c3cc4cc(C#N)ccc4[nH]3)nc21 (stereo not drawn) [Compound 64, 2-[8-(4-fluoro-2-methylphenyl)-5,6,7,8-tetrahydroimidazo[1,2-a]pyridin-2-yl]-1H-indole-5-carbonitrile] |  | 122 % vs Ctrl
15 | 72 nM | > 10 µM |  |  |  | COc1c(C#N)ccc2[nH]c(-c3nc4n(n3)CCOC4c3ccccc3C(F)(F)F)cc12 (stereo not drawn) [Compound 55, 2-[5,6-dihydro-8-[2-(trifluoromethyl)phenyl]-8H-[1,2,4]triazolo[5,1-c][1,4]oxazin-2-yl]-4-methoxy-1H-indole-5-carbonitrile] | 130% | 
16 | 25 nM | 3.71 µM |  |  |  | COc1c(C#N)ccc2[nH]c(-c3nc4n(n3)CCCC4c3ccc(F)cc3C)cc12 (stereo not drawn) [Compound 59, 2-[8-(4-fluoro-2-methylphenyl)-5,6,7,8-tetrahydro[1,2,4]triazolo[1,5-a]pyridin-2-yl]-4-methoxy-1H-indole-5-carbonitrile] | 91% | 
17 |  | > 10 µM | 236.2 °C | 54 nM |  | COc1c(C#N)ccc2[nH]c(-c3cn4c(n3)C(c3ccc(F)cc3C)OCC4)cc12 (stereo not drawn) [Compound 46, 2-[8-(4-fluoro-2-methylphenyl)-5,6-dihydro-8H-imidazo[2,1-c][1,4]oxazin-2-yl]-4-methoxy-1H-indole-5-carbonitrile] |  | 109 % vs Ctrl
